The source of these data is patent US20250179078A1, “INHIBITORS OF NLRP3” (PTC THERAPEUTICS, INC., priority 2022, published 2025).

In this experiment the target is T1, NLRP3 (Homo sapiens, UniProt Q96P20).
T1 construct: host or cells: THP-1 cells differentiated with PMA
T1 sequence (Q96P20 whole entry): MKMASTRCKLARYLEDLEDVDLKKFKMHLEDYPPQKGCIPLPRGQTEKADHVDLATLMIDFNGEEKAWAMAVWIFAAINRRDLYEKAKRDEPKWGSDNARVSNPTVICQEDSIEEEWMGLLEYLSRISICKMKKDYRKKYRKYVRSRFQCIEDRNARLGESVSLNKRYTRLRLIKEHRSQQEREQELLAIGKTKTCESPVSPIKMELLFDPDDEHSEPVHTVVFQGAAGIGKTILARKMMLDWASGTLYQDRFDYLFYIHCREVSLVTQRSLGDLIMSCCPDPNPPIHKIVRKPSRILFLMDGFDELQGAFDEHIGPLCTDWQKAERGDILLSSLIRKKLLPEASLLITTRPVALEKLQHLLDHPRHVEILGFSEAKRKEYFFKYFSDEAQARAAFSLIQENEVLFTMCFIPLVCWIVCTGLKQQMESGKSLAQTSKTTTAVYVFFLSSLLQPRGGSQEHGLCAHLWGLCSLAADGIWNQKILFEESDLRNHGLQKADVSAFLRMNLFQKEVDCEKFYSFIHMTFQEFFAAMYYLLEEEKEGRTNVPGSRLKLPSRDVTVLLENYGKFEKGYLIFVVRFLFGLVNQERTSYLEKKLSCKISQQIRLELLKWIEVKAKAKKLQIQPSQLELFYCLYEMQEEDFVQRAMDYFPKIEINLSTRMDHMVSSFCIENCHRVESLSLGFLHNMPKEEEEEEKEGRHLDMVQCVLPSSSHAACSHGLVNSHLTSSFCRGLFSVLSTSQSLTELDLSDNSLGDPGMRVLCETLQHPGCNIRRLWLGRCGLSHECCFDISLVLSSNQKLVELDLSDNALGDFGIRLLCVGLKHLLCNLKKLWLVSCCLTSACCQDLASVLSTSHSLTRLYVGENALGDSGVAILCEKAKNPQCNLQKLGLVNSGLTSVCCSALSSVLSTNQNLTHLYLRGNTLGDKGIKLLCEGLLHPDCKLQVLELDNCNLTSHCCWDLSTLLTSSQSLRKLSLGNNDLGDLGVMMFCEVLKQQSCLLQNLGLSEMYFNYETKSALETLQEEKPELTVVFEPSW
In words: IL-1β Secretion Assay (NLRP3-dependent IL1β secretion in THP1 cells). The experiment is classed as cell-based. The note with it: PMA-differentiated THP-1 cells; compounds incubated 20 h; 2.5 μM Nigericin 3 h; HTRF IL-1β readout; read-out: IC50 IL-1β Inhibition. The essentials:
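IL-1β in conditioned media, measured by HTRF after 3 h 2.5 μM nigericin stimulation, gave % inhibition fitted logistically for IC50. Before that, PMA-differentiated (100 ng/mL, 24 h) THP-1 cells were preincubated 20 h with 7 compound concentrations (3-fold serial, DMSO 1:200).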
For orientation: In TR-FRET formats the signal depends on donor and acceptor labels being close together.
Usually IC50 stands for the concentration that gives 50% inhibition. On to `O[C@H]1CCCC[C@@H]1Nc1nnc(-c2ccc(C(F)(F)F)cc2OC(F)(F)F)c2cncn12` [Compound 290], for which the IC50 is 10 to 100 nM.

`CN1C[C@H](F)C[C@@H](Nc2nnc(-c3ccc(C(F)(F)F)cc3C(F)(F)F)c3c(F)ccn23)C1` [Compound 31, 1-[2,4-bis(trifluoromethyl)phenyl]-8-fluoro-N-[(3R,5R)-5-fluoro-1-methylpiperidin-3-yl]pyrrolo[1,2-d][1,2,4]triazin-4-amine]: the half-maximal inhibitory concentration (IC50) was 1 to 10 nM.

Consider `COc1ccc(-c2nnc(NC[C@@H]3CCCN3C)n3cccc23)c(OC(F)(F)F)c1` [Compound 74, 1-[4-methoxy-2-(trifluoromethoxy)phenyl]-N-{[(2S)-1-methylpyrrolidin-2-yl]methyl}pyrrolo[1,2-d][1,2,4]triazin-4-amine], for which the IC50 is 10 to 100 nM.

For the compound `C[C@]1(O)C[C@@H](Nc2nnc(-c3ccc(C4CC4)cc3OC(F)(F)F)c3cncn23)C1` [Compound 346, (1s,3s)-3-({1-[4-cyclopropyl-2-(trifluoromethoxy)phenyl]imidazo[1,5-d][1,2,4]triazin-4-yl}amino)-1-methylcyclobutan-1-ol], the IC50 is 1 to 10 nM.

As for `OCCN1CCC[C@@H](Nc2nnc(-c3ccc(C(F)(F)F)cc3OC(F)F)c3cncn23)C1` [Compound 186, 2-[(3R)-3-({1-[2-(difluoromethoxy)-4-(trifluoromethyl)phenyl]imidazo[1,5-d][1,2,4]triazin-4-yl}amino)piperidin-1-yl]ethan-1-ol], the 50% inhibitory concentration (IC50) is less than 1 nM.

Consider `COc1ccc(-c2nnc(N[C@@H]3CCC[C@H](O)C3)n3cccc23)c(C2CC2)c1` [Compound 106, (1S,3R)-3-{[1-(2-cyclopropyl-4-methoxyphenyl)pyrrolo[1,2-d][1,2,4]triazin-4-yl]amino}cyclohexan-1-ol], for which the IC50 was in the range of 10 to 100 nM.

Regarding `O[C@@H]1COCC[C@H]1Nc1nnc(-c2ccc(C3CC3)cc2CC(F)(F)F)c2cncn12` [Compound 351, (3S,4R)-4-({1-[4-cyclopropyl-2-(2,2,2-trifluoroethyl)phenyl]imidazo[1,5-d][1,2,4]triazin-4-yl}amino)oxan-3-ol], the IC50 was in the range of 1 to 10 nM.

On to `O[C@@H]1CCCC[C@H]1Nc1nnc(-c2ccc(C(F)(F)F)cc2OC(F)(F)F)c2cncn12` [Compound 242, (1R,2R)-2-({1-[2-(trifluoromethoxy)-4-(trifluoromethyl)phenyl]imidazo[1,5-d][1,2,4]triazin-4-yl}amino)cyclohexan-1-ol], for which the IC50 is less than 1 nM.

For `Cc1ccc(-c2nnc(NC3CCNC3=O)n3cccc23)c(CC(F)(F)F)c1` (centres unmarked) [Compound 157, 3-({1-[4-methyl-2-(2,2,2-trifluoroethyl)phenyl]pyrrolo[1,2-d][1,2,4]triazin-4-yl}amino)pyrrolidin-2-one], the IC50 is 1 to 10 nM.

Consider `CC(CO)N1CCC[C@@H](Nc2nnc(-c3ccc(C(F)(F)F)cc3OC(F)F)c3cccn23)C1` (stereo partly drawn) [Compound 22, 2-[(3R)-3-({1-[2-(difluoromethoxy)-4-(trifluoromethyl)phenyl]pyrrolo[1,2-d][1,2,4]triazin-4-yl}amino)piperidin-1-yl]propan-1-ol], for which the IC50 is less than 1 nM.

Take `CCN1CCC[C@@H](Nc2nnc(-c3ccc(OC)cc3OC(F)(F)F)c3c(F)ccn23)C1` [Compound 50, N-[(3R)-1-ethylpiperidin-3-yl]-8-fluoro-1-[4-methoxy-2-(trifluoromethoxy)phenyl]pyrrolo[1,2-d][1,2,4]triazin-4-amine]: the 50% inhibitory concentration (IC50) was less than 1 nM.

Regarding `O[C@H]1CCC[C@@H](Nc2nnc(-c3ccc(C(F)(F)F)cc3CC(F)(F)F)c3cncn23)C1` [Compound 262, (1S,3R)-3-({1-[2-(2,2,2-trifluoroethyl)-4-(trifluoromethyl)phenyl]imidazo[1,5-d][1,2,4]triazin-4-yl}amino)cyclohexan-1-ol], the IC50 is less than 1 nM.

For the compound `CC(C)CN1CCC[C@@H](Nc2nnc(-c3ccc(C(F)(F)F)cc3C(F)(F)F)c3cccn23)C1` [Compound 10, 1-[2,4-bis(trifluoromethyl)phenyl]-N-[(3R)-1-(2-methylpropyl)piperidin-3-yl]pyrrolo[1,2-d][1,2,4]triazin-4-amine], the IC50 was 1 to 10 nM.

Regarding `Cc1cc2c(-c3ccc(C(F)(F)F)cc3OC(F)F)nnc(NC(C)c3cccc(O)c3)n2n1` (centres unmarked) [Compound 383, 3-[1-({4-[2-(difluoromethoxy)-4-(trifluoromethyl)phenyl]-2-methylpyrazolo[1,5-d][1,2,4]triazin-7-yl}amino)ethyl]phenol], the IC50 lay within 1 to 10 nM.

Consider `OCCN1CCC[C@@H](Nc2nnc(-c3ccc(C(F)(F)F)cc3OCF)c3cccn23)C1` [Compound 173, 2-[(3R)-3-({1-[2-(fluoromethoxy)-4-(trifluoromethyl)phenyl]pyrrolo[1,2-d][1,2,4]triazin-4-yl}amino)piperidin-1-yl]ethan-1-ol], for which the IC50 is less than 1 nM.

As to `CC(Nc1nnc(-c2ccc(C(F)(F)F)cc2C(F)(F)F)c2ccnn12)c1cccc(O)c1` (centres unmarked) [Compound 395, 3-[1-({4-[2,4-bis(trifluoromethyl)phenyl]pyrazolo[1,5-d][1,2,4]triazin-7-yl}amino)ethyl]phenol], the IC50 is 1 to 10 nM.

Consider `CN1CCC[C@@H](Nc2nnc(-c3ccc(C4CC4)cc3C(F)(F)F)c3cncn23)C1` [Compound 207, 1-[4-cyclopropyl-2-(trifluoromethyl)phenyl]-N-[(3R)-1-methylpiperidin-3-yl]imidazo[1,5-d][1,2,4]triazin-4-amine], for which the IC50 is less than 1 nM.

As for `O[C@@H]1CCCC[C@@H]1Nc1nnc(-c2ccc(C(F)(F)F)cc2OC(F)F)c2cccn12` [Compound 79, (1R,2S)-2-({1-[2-(difluoromethoxy)-4-(trifluoromethyl)phenyl]pyrrolo[1,2-d][1,2,4]triazin-4-yl}amino)cyclohexan-1-ol], the 50% inhibitory concentration (IC50) was in the range of 10 to 100 nM.

As for `FC(F)Oc1cc(Cl)ccc1-c1nnc(N[C@@H]2CCCOC2)n2cncc12` [Compound 189, 1-[4-chloro-2-(difluoromethoxy)phenyl]-N-[(3R)-oxan-3-yl]imidazo[1,5-d][1,2,4]triazin-4-amine], the half-inhibitory concentration (IC50) lay in the range of 10 to 100 nM.

Turning to `Cc1cc2c(-c3ccc(C(F)(F)F)cc3C(F)F)nnc(N[C@@H]3CCCN(C)C3)n2n1` [Compound 359, 4-[2-(difluoromethyl)-4-(trifluoromethyl)phenyl]-2-methyl-N-[(3R)-1-methylpiperidin-3-yl]pyrazolo[1,5-d][1,2,4]triazin-7-amine], the IC50 fell in the range of 1 to 10 nM.

As for `CCN1CCC[C@@H](Nc2nnc(-c3ccc(C(F)(F)F)cc3OC(F)(F)F)c3cc(C)nn23)C1` [Compound 365, N-[(3R)-1-ethylpiperidin-3-yl]-2-methyl-4-[2-(trifluoromethoxy)-4-(trifluoromethyl)phenyl]pyrazolo[1,5-d][1,2,4]triazin-7-amine], the half-maximal inhibitory concentration (IC50) was in the range of 1 to 10 nM.

`CC(Nc1nnc(-c2ccc(OC(F)F)cc2OC(F)(F)F)c2cccn12)c1cccc(O)c1` (centres unmarked) [Compound 172, 3-[1-({1-[4-(difluoromethoxy)-2-(trifluoromethoxy)phenyl]pyrrolo[1,2-d][1,2,4]triazin-4-yl}amino)ethyl]phenol]: the concentration for half-maximal inhibition (IC50) is less than 1 nM.

On to `COc1ccc(-c2nnc(N[C@H]3CCCC[C@]3(C)O)n3cncc23)c(OC(F)(F)F)c1` (single isomer, unassigned) [Compound 310], for which the 50% inhibitory concentration (IC50) was no less than 300 nM.
